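Cells were grown in 96-well plates and exposed to each compound for 48 hours at five concentrations; endpoints were interpolated linearly between bracketing concentrations, or set to the highest concentration if not reached. At the GI50, growth is halved. At the TGI there is no net growth.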
What was measured:
Assay in all cases: NCI anticancer screen, dose series, 48 h
[1] = system: A498 renal
[2] = system: HCT-116 colon
[3] = system: HCT-15 colon
[4] = system: M14 melanoma
[5] = system: NCI-H226 lung
[6] = system: NCI/ADR-RES ovarian
[7] = system: SF-268 CNS
[8] = system: SF-295 CNS
[9] = system: SK-OV-3 ovarian
[10] = system: SW-620 colon

Structure (SMILES) | GI50 [1] | TGI [1] | GI50 [2] | TGI [2] | GI50 [3] | TGI [3] | GI50 [4] | TGI [4] | GI50 [5] | TGI [5] | GI50 [6] | TGI [6] | GI50 [7] | TGI [7] | GI50 [8] | TGI [8] | GI50 [9] | TGI [9] | GI50 [10] | TGI [10]
Oc1ccc(-c2nc3ccc4[nH]ncc4c3c3c2CCCC3)c2cccnc12 | 0.779 µM | 2.19 µM | 0.228 µM | 4.14 µM | 0.153 µM | 7.3 µM | 0.163 µM | 2.21 µM | 1.22 µM | 5.79 µM | 0.167 µM | 4.61 µM | 0.239 µM | 5.24 µM | 0.339 µM | 2.68 µM | 0.509 µM | 2.26 µM | 0.123 µM | 11.1 µM
CCc1nc(N)nc(N)c1-c1ccc(Cl)c(N=NN(C)C)c1 | – | > 100 µM | – | > 75.1 µM | – | > 100 µM | – | 58.9 µM | – | > 100 µM | – | > 100 µM | – | > 100 µM | – | > 100 µM | – | > 100 µM | – | > 100 µM
C=C1C(=O)O[C@H]2[C@H]1CC/C(COC(=O)C(=O)c1cn(C)c3ccc(OC)cc13)=C\CC[C@@]1(C)O[C@@H]21 | 6.77 µM | 10.1 µM | 3.61 µM | 7.38 µM | 1.75 µM | 3.23 µM | 3.22 µM | 8.27 µM | 5.45 µM | 10.1 µM | 4.97 µM | 25.8 µM | 5.71 µM | 12.5 µM | 9.35 µM | 21.8 µM | 13.6 µM | 29.3 µM | 3.53 µM | 14.5 µM
CC(C)[C@@H](CS(=O)(=O)C(C)C)N1C(=O)[C@@](C)(CC(=O)O)C[C@H](c2cccc(Cl)c2)[C@H]1c1ccc(Cl)cc1 | 0.537 µM | 16.8 µM | 0.454 µM | 17.2 µM | 15.3 µM | > 69.3 µM | 14.1 µM | 59.6 µM | 0.193 µM | 0.422 µM | 24.7 µM | > 100 µM | 20.8 µM | > 100 µM | 9.09 µM | 33.2 µM | 19.2 µM | 73.2 µM | 25.5 µM | > 100 µM
Cc1ccccc1NC(=O)c1sc2nc3c(cc2c1N)C(=O)CCC3 | 1.16 µM | 4.65 µM | 3.56 µM | > 100 µM | 1.64 µM | > 100 µM | 2.27 µM | > 100 µM | 37.6 µM | > 100 µM | 2.23 µM | > 100 µM | 8.51 µM | > 100 µM | 1.33 µM | > 100 µM | 2.72 µM | > 100 µM | 1.83 µM | > 100 µM
Cc1ccc(-n2c(-c3ccc(Cl)cc3)cs/c2=N\NC(=O)COc2n[nH]c(=O)c3ccccc23)cc1 | > 100 µM | > 100 µM | – | – | > 100 µM | > 100 µM | > 100 µM | > 100 µM | 39.6 µM | > 100 µM | > 100 µM | > 100 µM | 32.9 µM | > 100 µM | 19.7 µM | > 100 µM | 57.9 µM | > 100 µM | > 100 µM | > 100 µM
CCCCC#Cc1cccc(=O)o1 | 9.83 µM | 66.1 µM | 5.34 µM | 30.4 µM | – | – | 4.5 µM | > 100 µM | > 100 µM | > 100 µM | 9.46 µM | > 100 µM | > 100 µM | > 100 µM | > 100 µM | > 100 µM | > 100 µM | > 100 µM | 22.5 µM | > 100 µM
COc1cc2c3c(n(C)c(=O)c2cc1OC)-c1cc2c(cc1/C3=C\[C@@H](N)CCCCN)OCO2 | 5.14 µM | 33.9 µM | 0.329 µM | 14.4 µM | 60.3 µM | > 100 µM | 6.9 µM | > 100 µM | 1.48 µM | 18.4 µM | 29.7 µM | > 100 µM | 1.86 µM | > 42 µM | 4.3 µM | > 100 µM | > 26.2 µM | > 100 µM | 1.57 µM | > 100 µM
c1ccc2c(c1)ccc1c3ccccc3ccc21 | > 50 µM | > 50 µM | > 50 µM | > 50 µM | > 50 µM | > 50 µM | > 50 µM | > 50 µM | > 50 µM | > 50 µM | > 50 µM | > 50 µM | > 50 µM | > 50 µM | – | – | > 50 µM | > 50 µM | > 50 µM | > 50 µM

From PubChem BioAssay (NCI)
